# Results from patent US5977298A, “Calcitonin derivatives” (Kvowa Hakko Kogyo Co., Ltd., priority 1995, dated 1999).
# Where no end group is shown, it is not given here.
# Experiments:
# [1] = test system: Osteoclast-like multinucleated cells (osteoclasts); test: Calcitonin-like biological activity: bone resorption pit formation by osteoclasts on ivory pieces; type: cell-based, mouse; conditions: compound concentration 10^-6 M, 48 hours
# Experimental: 1-1 Preparation of Osteoclasts
# Osteoclast-like multinucleated cells which were derived by coculturing mouse osteoblasts and bone marrow cells on collagen gel according to the method described in Akatsu T. et al., J. Bone Miner. Res., 7, 1297-1306 (1992) were used as osteoclasts. That is, osteoblasts derived from mouse vault of skull (5×10^5 cells) were put in a 100 mm dish (IWAKI) collagen-coated with Cellmatrix Type I-A (Nitta Gelatin Co., Ltd.) and cultured for one day in a CO2 incubator (37° C., 5% CO2) [medium: αMEM+10% FCS (both by GIBCO Co., Ltd.)]. After the medium was removed, mouse bone marrow cells (6×10^6 cells) were put on the osteoblasts and 10^-8 M calcitriol (Wako Pure Chemical Industries, Ltd.) and 10^-7 M dexamethasone (Sigma Chemical Co.) were added thereto. TRAP-positive multinucleate cells (osteoclast-like cells) which were obtained 7 days after the inoculation of osteoblasts were used as osteoclasts.
# 1-2 Culturing of Osteoclasts on Ivory Pieces
# After removal of the medium from the dish, and rinsing with PBS(-), a mixture of collagenase and dispase (collagenase: Wako Pure Chemical Industries, Ltd., dispase: Godo Shusei Co., Ltd.) was added thereto to suspend the cells. The cell suspension was put into a tube and centrifuged at 800 rpm for 5 minutes. After removal of the supernatant by suction, the cells were suspended again in αMEM and the suspension was put on ivory pieces (diameter: 4 mm, thickness: 20 μm) in 100 μl portions. The ivory pieces were left to stand in a CO2 incubator for 2 hours to attach the osteoclasts thereto, and then taken out and gently transferred to a 48-well plate (IWAKI) to which a medium containing a test compound had been added in advance to determine the bone resorption activity 48 hours later according to the method described below. The medium containing the test compound was prepared by adding the test compound dissolved in HEPES buffer to the medium described in 1-1 to give the final concentrations shown in Tables 2 and 3.
# 1-3 Determination of Bone Resorption Activity by Staining of Ivory Pieces and Measurement of Bone Resorption Pit Area
# The ivory pieces taken out of the medium were put into a tube containing 0.1 N aqueous ammonia and subjected to sonication treatment with a sonicator for 20-30 seconds to remove the osteoclasts. After being washed with distilled water to remove ammonia, the ivory pieces were dipped in a hematoxylin-eosin staining solution to stain resorption pits. The bone resorption pit formation rate was calculated based on microphotographs of stained ivory pieces according to the following equation by the use of an image analyzer. [formula]
# The bone resorption inhibitory activity of test compounds were calculated according to the following equation. [formula]
# A; Bone resorption pit formation rate obtained using no test compound
# B; Bone resorption pit formation rate obtained using a test compound
# [2] = test system: male SD strain rats; test: Serum calcium content after intravenous administration to rats; type: in vivo, rat; conditions: 60 minutes after administration; for Serum calcium Content: 0.5 ml i.v. tail vein, value ± standard error
# Experimental: Four-weeks-old male SD strain rats (Clea Japan, Inc.) were fasted for 24 hours before the test and were offered in groups each consisting of 8 rats. Each rat of the control group was given 0.5 ml of physiological saline (Otsuka Pharmaceutical Co., Ltd.) containing 1% BSA (Sigma Chemical Co.) by intravenous administration through the tail vein. In the same manner, each rat of Compound 9-administered groups was given 0.5 ml of a solution of Compound 9 in physiological saline containing 1% BSA. Blood was collected from the right femoral artery of a rat 60 minutes after the administration and was centrifuged at 4° C. at 3000 rpm for 15 minutes to obtain a blood serum, and the serum calcium content was determined with calcium C-test WAKO (Wako Pure Chemical Industries, Ltd.). The results are expressed in terms of value ± standard error, and the difference was judged to be statistically significant at P <0.05 according to the Williams-Wilcoxon test.
substance,measurement,setting,value
Compound 9: SEQ ID NO:9; cyclic peptide Compound 16 condensed to the N-terminus of the Compound 25 peptide (GNWHGTAPDGLGSLTEVLAKLAEYPRTNTGSGTP-NH2; lactam (positions not given here); not fully specified (bridges); printed as ⌐GNWHGTAPDGLGSLTEVLAKLAEYPRTNTGSGTP┐— NH$_2$; also: cyclic peptide Compound 16 condensed at N-terminus),Bone resorption inhibitory activity (% inhibition),[1],53%
same,Serum calcium Content,[2]; compound concentration 1 μg/ml,10.41 ± 0.13 mg/dL
same,Serum calcium Content,[2]; compound concentration 10 μg/ml,10.20 ± 0.16 mg/dL
same,Serum calcium Content,"[2]; compound concentration 100 μg/ml, P < 0.01 vs control",7.54 ± 0.29 mg/dL
same,serum calcium content compared with that of the control group,"[2]; concentration of 100 μg/l (so in the source), 0.5 ml i.v.",significantly lowered
